Laboratory results: article PMC7571145, “Multistep Synthesis and In Vitro Anticancer Evaluation of 2-Pyrazolyl-Estradiol Derivatives, Pyrazolocoumarin-Estradiol Hybrids and Analogous Compounds” (Molecules, 2020)
Read-outs that look alike come from different tables or passages of the source.

Key:
MRC-5 fibroblasts = test: MTT cytotoxicity assay on non-cancerous MRC-5 fibroblasts; assay type: cell-based; conditions: for primary growth inhibitory screen, cell viability, MRC-5 / IC50: MTT; for primary growth inhibitory screen, cell viability, MRC-5: mean±SD, untreated control about 100; for IC50: mean ± SD
Procedure: (§1) Cytotoxicity screens were performed to assess the in vitro anticancer activity of the synthesized A-ring-linked 2-pyrazoles of estradiol, the pyrazolocoumarin-estradiol hybrids, and their structurally simplified non-steroidal analogs on various cancerous cell lines such as MCF-7, PC-3, DU145, and HeLa and on non-cancerous MRC-5 fibroblasts. The 2-acetyl-phenol starting materials (4, 5, and 15) were also included for comparison. All compounds were applied in 2.5 µM concentration for 72 h. The obtained cell viability data were used to construct a heat map (Figure 2) in order to select compounds that exert cancer cell line-specific cytotoxicity. […] Furthermore, some compounds discriminated only DU145 cells and could eliminate these type of prostate cancer cells.
(§2) To understand structure-function relationships, we also included the structural analogs of the selected compounds, namely 7a (C-17 acetate of 8a), 8c (C-17 OH counterpart of 7c), and 9a (steroidal pair of 19a) into subsequent analyses. […] For this, compounds were applied on MCF-7, PC-3, DU145, and HeLa and on non-cancerous MRC-5 fibroblasts in various concentrations for 72 h or were treated with cisplatin at different concentrations. On the viability data, dose–response curves were fitted (Figure S1) and IC50 values were calculated accordingly (Table 3). In agreement with the primary cytotoxicity screen (Table S1), the obtained IC50 concentrations clearly indicated which compound was selectively effective on one or more cancer cell lines. […] Typically, acetylated steroidal pyrazoles were less favorable than deacetylated counterparts due to reduced cancer cell selectivity (7c, 10a).
(§3) To evaluate the in vitro pharmacological effects of the synthesized molecules, each compound was first dissolved in cell culture grade DMSO (Sigma) to a final concentration of 10 mM. Using MTT colorimetric assay, the cytotoxicity of these compounds was evaluated on cancerous (MCF-7, HeLa, DU145, PC-3) and non-cancerous (MRC-5) cell lines. Briefly, 5000 cells/well of each cell line were seeded in 96-well plates and were left to grow overnight in a 5% CO2 atmosphere at 37 °C. On the next day, cells were treated with each derivative separately, in case of the primary screen, or only with the selected compounds upon IC50 determination. Cells were incubated with the test compounds for 72 h in a 5% CO2 atmosphere at 37 °C. End point was measured by incubating cells for 1 h with 0.5 mg/mL of MTT reagent (Serva) dissolved in serum free culture medium. The formazan crystals formed by metabolically active cells were later dissolved in DMSO. Optical density of the obtained solutions was measured at 570 nm using a Synergy HTX plate reader. […] The analysis and conclusions were made based on three independent experiments. Normalized data were analyzed and the heat map was constructed using GraphPad Prism 7 software.

MCF-7 cells = test: MTT cytotoxicity assay on MCF-7 cells; assay type: cell-based; conditions: for primary growth inhibitory screen, cell viability, MCF-7: 2.5 µM, 72 h, mean±SD, untreated control about 100; for IC50: mean ± SD
Procedure: as §1, §2, §3

HeLa cells = test: MTT cytotoxicity assay on HeLa cells; assay type: cell-based; conditions: for primary growth inhibitory screen, cell viability, HeLa: 2.5 µM, mean±SD, untreated control about 100; for IC50: mean ± SD
Procedure: as §1, §2, §3

PC-3 cells = test: MTT cytotoxicity assay on PC-3 prostate cancer cells; assay type: cell-based; conditions: for primary growth inhibitory screen, cell viability, PC-3: 2.5 µM, 72 h, mean±SD, untreated control about 100; for IC50: mean ± SD
Procedure: as §1, §2, §3

DU145 cells = test: MTT cytotoxicity assay on DU145 prostate cancer cells; assay type: cell-based; conditions: for primary growth inhibitory screen, cell viability, DU145: 2.5 µM, 72 h, mean±SD, untreated control about 100; for IC50: mean ± SD
Procedure: as §1, §2, §3

[1] = Homo sapiens, MRC5, 72 h, compounds 1-7 µM, read-out: IC50 on MRC-5
[2] = Homo sapiens, MCF7, 72 h, compounds 1-7 µM, read-out: IC50 on MCF-7
[3] = Homo sapiens, HeLa, 72 h, compounds 1-7 µM, read-out: IC50 on HeLa
[4] = Homo sapiens, PC-3, 72 h, compounds 1-7 µM, read-out: IC50 on PC-3
[5] = Homo sapiens, DU-145, 72 h, compounds 1-7 µM, read-out: IC50 on DU145

| SMILES | melting point | primary growth inhibitory screen, cell viability, MRC-5 (MRC-5 fibroblasts; 2.5 µM, 72 h) | effect on non-cancerous fibroblasts (MRC-5 fibroblasts; 2.5 µM, 72 h, based on the heat map) | IC50 (MRC-5 fibroblasts; [1]) [µM] | primary growth inhibitory screen, cell viability, MCF-7 (MCF-7 cells) | IC50 (MCF-7 cells; [2]) [µM] | primary growth inhibitory screen, cell viability, HeLa (HeLa cells; 72 h) | IC50 (HeLa cells; [3]) [µM] | primary growth inhibitory screen, cell viability, PC-3 (PC-3 cells) | IC50 (PC-3 cells; [4]) [µM] | primary growth inhibitory screen, cell viability, DU145 (DU145 cells) | IC50 (DU145 cells; [5]) [µM] | IC50 (MRC-5 fibroblasts; cisplatin applied for 24 h, 20-330 µM, read-out: IC50 on MRC-5 (positive control)) [µM] | IC50 (MCF-7 cells; cisplatin applied for 24 h, 20-330 µM, read-out: IC50 on MCF-7 (positive control)) [µM] | IC50 (HeLa cells; cisplatin applied for 24 h, 20-330 µM, read-out: IC50 on HeLa (positive control)) [µM] | IC50 (PC-3 cells; cisplatin applied for 24 h, 20-330 µM, read-out: IC50 on PC-3 (positive control)) [µM] | IC50 (DU145 cells; cisplatin applied for 24 h, 20-330 µM, read-out: IC50 on DU145 (positive control)) [µM] |
| --- | --- | --- | --- | --- | --- | --- | --- | --- | --- | --- | --- | --- | --- | --- | --- | --- | --- |
| C[C@]12CC[C@@H]3c4cc(-c5nn(-c6ccccc6)cc5C=O)c(O)cc4CC[C@H]3[C@@H]1CC[C@@H]2O [Compound 8a, 2-(4′-Formyl-1′-phenyl-1′H-pyrazol-3′-yl)-estra-1,3,5(10)-trien-3,17β-diol] | 172 to 174 °C | 99.9±3.3 | no or very mild effect | 5.12 ± 1 | 100.9±4.8 | 5.03 ± 1 | 100.4±1.6 | 4.09 ± 1 | 54.9±3.0 | 3.05 ± 1 | 108.8±4.1 | 6.46 ± 1 |  |  |  |  |  |
| Cc1ccc(-n2cc(C=O)c(-c3cc4c(cc3O)CC[C@@H]3[C@@H]4CC[C@]4(C)[C@@H](O)CC[C@@H]34)n2)cc1 [Compound 8b, 2-(4′-Formyl-1′-(4″-tolyl)-1′H-pyrazol-3′-yl)-estra-1,3,5(10)-trien-3,17β-diol] | > 190 °C (dec.) | ≥ 100±2.4 |  |  | ≥ 100±8.2 |  | 92.2±8.5 |  | 67.8±3.8 |  | ≥ 100±10.2 |  |  |  |  |  |  |
| C[C@]12CC[C@@H]3c4cc(-c5nn(-c6ccc(Cl)cc6)cc5C=O)c(O)cc4CC[C@H]3[C@@H]1CC[C@@H]2O [Compound 8c] | > 190 °C (dec.) | ≥ 100±3.3 |  | 5.53 ± 1 | ≥ 100±5.3 | 5.34 ± 1 | 83.1±6.2 | 3.39 ± 1 | 94.8±4.0 | 5.08 ± 1 | ≥ 100±5.0 | 4.82 ± 1 |  |  |  |  |  |
| CC(=O)O[C@H]1CC[C@H]2[C@@H]3CCc4cc5oc(=O)c6cn(-c7ccccc7)nc6c5cc4[C@H]3CC[C@]12C [Compound 9a] | 198 to 200 °C | ≥ 100±8.1 |  | 6.41 ± 1.1 | ≥ 100±2.4 | 4.94 ± 1 | 73.8±0.6 | 1.55 ± 1 | 82.0±2.2 | 4.22 ± 1 | ≥ 100±5.8 | 5.66 ± 1 |  |  |  |  |  |
| CC(=O)O[C@H]1CC[C@H]2[C@@H]3CCc4cc5oc(=O)c6cn(-c7ccc(C)cc7)nc6c5cc4[C@H]3CC[C@]12C [Compound 9b] | 264 to 266 °C | ≥ 100±4.2 |  |  | ≥ 100±0.8 |  | 68.0±0.4 |  | 86.2±2.4 |  | ≥ 100±4.5 |  |  |  |  |  |  |
| N.N.[Cl][Pt][Cl] [cisplatin, reference compound] |  |  |  |  |  |  |  |  |  |  |  |  | 34.3 ± 1.02 | > 330 | 297.1 ± 1.02 | > 330 | 116.1 ± 1.06 |
